Results on five molecules are retold here after ChEMBL document CHEMBL5038618, “Discovery of PT-65 as a highly potent and selective Proteolysis-targeting chimera degrader of GSK3 for treating Alzheimer's disease” (Eur J Med Chem, 2021).

Molecules are shown by their SMILES.

What is called DC50 is the midpoint of the concentration-degradation curve.

Assay [1] concerns the target T1, Protein cereblon/Glycogen synthase kinase-3 beta (Homo sapiens, UniProt P49841+Q96SW2). Put plainly: Protac activity at CRBN/GSK3beta in human SH-SY5Y cells assessed as induction of GSK3beta degradation at 1 uM measured after 24 hrs. The assay is classed as cell-based.
Target sequence in this assay (P49841 whole entry, looked up): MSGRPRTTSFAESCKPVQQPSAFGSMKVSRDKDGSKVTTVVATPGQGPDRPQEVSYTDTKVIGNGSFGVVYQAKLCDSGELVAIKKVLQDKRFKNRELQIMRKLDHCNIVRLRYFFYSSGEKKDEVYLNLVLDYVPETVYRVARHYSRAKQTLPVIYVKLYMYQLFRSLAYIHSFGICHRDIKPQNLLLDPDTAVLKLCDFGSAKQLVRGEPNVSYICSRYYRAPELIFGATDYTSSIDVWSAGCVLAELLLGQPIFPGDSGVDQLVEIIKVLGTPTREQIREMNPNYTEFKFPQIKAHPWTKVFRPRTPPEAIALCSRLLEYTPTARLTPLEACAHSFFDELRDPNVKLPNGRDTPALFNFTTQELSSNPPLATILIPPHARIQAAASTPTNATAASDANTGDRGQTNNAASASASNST
Target sequence in this assay (Q96SW2 whole entry, looked up): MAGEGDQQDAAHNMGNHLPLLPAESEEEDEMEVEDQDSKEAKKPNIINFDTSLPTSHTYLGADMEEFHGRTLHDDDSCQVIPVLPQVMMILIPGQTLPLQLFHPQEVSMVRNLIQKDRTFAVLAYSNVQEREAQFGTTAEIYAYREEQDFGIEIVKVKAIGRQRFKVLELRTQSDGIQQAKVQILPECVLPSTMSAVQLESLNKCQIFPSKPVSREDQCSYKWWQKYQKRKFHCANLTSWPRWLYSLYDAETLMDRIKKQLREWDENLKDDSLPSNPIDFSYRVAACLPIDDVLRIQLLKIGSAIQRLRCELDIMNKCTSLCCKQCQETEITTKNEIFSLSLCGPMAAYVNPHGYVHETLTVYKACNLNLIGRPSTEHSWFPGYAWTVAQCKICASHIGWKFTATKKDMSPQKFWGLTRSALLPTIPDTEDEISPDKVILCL
In assay [2] the target is T2, Protein cereblon/Glycogen synthase kinase-3 alpha (Homo sapiens, UniProt P49840+Q96SW2). Kind of assay: Protac activity at CRBN/GSK3alpha in human SH-SY5Y cells assessed as induction of GSK3alpha protein degradation at 1 uM measured after 24 hrs. Type of assay: cell-based.
Target sequence in this assay (P49840 2-483 limits assumed): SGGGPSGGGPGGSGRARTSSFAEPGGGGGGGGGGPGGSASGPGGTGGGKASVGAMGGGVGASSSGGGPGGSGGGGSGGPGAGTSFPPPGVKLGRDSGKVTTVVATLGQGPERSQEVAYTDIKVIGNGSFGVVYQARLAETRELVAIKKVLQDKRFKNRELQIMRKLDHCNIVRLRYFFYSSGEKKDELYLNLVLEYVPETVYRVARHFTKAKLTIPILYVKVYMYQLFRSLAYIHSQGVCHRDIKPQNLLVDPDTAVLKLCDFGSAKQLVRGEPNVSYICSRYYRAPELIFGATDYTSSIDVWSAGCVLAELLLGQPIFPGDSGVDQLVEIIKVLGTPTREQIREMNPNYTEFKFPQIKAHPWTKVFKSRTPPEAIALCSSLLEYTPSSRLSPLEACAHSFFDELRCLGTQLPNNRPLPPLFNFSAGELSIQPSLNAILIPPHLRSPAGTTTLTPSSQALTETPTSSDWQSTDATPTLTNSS
Target sequence in this assay (Q96SW2 whole entry partner): as the sequence (Q96SW2 whole entry, looked up) above
Assay [3] has as its target T2, Protein cereblon/Glycogen synthase kinase-3 alpha. Kind of assay: Protac activity at CRBN/GSK3alpha in human SH-SY5Y cells assessed as induction of GSK3alpha protein degradation measured after 24 hrs. The assay is classed as cell-based.
Target sequence in this assay (P49840 whole entry): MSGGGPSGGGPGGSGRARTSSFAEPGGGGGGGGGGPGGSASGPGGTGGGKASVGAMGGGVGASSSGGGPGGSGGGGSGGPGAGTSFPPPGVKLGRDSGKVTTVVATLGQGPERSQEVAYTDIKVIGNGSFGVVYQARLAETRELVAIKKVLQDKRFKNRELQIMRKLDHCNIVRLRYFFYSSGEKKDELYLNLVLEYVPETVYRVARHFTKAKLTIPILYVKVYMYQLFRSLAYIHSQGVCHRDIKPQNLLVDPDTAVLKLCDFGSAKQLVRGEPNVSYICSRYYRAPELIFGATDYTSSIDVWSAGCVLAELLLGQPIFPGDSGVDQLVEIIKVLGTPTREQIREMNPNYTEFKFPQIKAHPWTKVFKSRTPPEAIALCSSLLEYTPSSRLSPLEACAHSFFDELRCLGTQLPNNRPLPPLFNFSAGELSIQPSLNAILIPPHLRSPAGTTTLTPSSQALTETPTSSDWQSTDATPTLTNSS
Target sequence in this assay (Q96SW2 whole entry): as the sequence (Q96SW2 whole entry, looked up) above
In assay [4] the target is T1, Protein cereblon/Glycogen synthase kinase-3 beta. Kind of assay: Protac activity at CRBN/GSK3beta in human SH-SY5Y cells assessed as induction of GSK3beta degradation measured after 24 hrs. Type of assay: cell-based.
Target sequence in this assay (P49841 whole entry): as the sequence (P49841 whole entry, looked up) above
Target sequence in this assay (Q96SW2 whole entry): as the sequence (Q96SW2 whole entry, looked up) above
In assay [5] the target is T2, Protein cereblon/Glycogen synthase kinase-3 alpha. Kind of assay: Protac activity at CRBN/GSK3alpha in human SH-SY5Y cells assessed as induction of GSK3alpha degradation at 0.1 uM measured after 24 hrs. The assay is classed as cell-based.
Target sequence in this assay (P49840 2-483 limits assumed): as the sequence (P49840 2-483 limits assumed) above
Target sequence in this assay (Q96SW2 whole entry partner): as the sequence (Q96SW2 whole entry, looked up) above
Assay [6] concerns the target T1, Protein cereblon/Glycogen synthase kinase-3 beta. Put plainly: Protac activity at CRBN/GSK3beta in human SH-SY5Y cells assessed as induction of GSK3beta degradation at 0.1 uM measured after 24 hrs. The assay is classed as cell-based.
Target sequence in this assay (P49841 whole entry, looked up): as the sequence (P49841 whole entry, looked up) above
Target sequence in this assay (Q96SW2 whole entry, looked up): as the sequence (Q96SW2 whole entry, looked up) above
The target is the same in assay [7]. Kind of assay: Protac activity at CRBN/GSK3beta in human SH-SY5Y cells assessed as induction of GSK3beta degradation at 10 uM measured after 24 hrs. The assay is classed as cell-based.
Target sequence in this assay (P49841 whole entry, looked up): as the sequence (P49841 whole entry, looked up) above
Target sequence in this assay (Q96SW2 whole entry, looked up): as the sequence (Q96SW2 whole entry, looked up) above
In assay [8] the target is T2, Protein cereblon/Glycogen synthase kinase-3 alpha. Put plainly: Protac activity at CRBN/GSK3alpha in human SH-SY5Y cells assessed as induction of GSK3alpha protein degradation at 10 uM measured after 24 hrs. Type of assay: cell-based.
Target sequence in this assay (P49840 2-483 limits assumed): as the sequence (P49840 2-483 limits assumed) above
Target sequence in this assay (Q96SW2 whole entry partner): as the sequence (Q96SW2 whole entry, looked up) above
For assay [9], the system named is SH-SY5Y. Put plainly: Induction of apoptosis in human SH-SY5Y cells assessed as necrotic cells at 10 uM preincubated for 2 hrs followed by coincubation with Abeta42 and measured after 72 hrs by Annexin V-FITC/propidium iodide staining based flow cytometry (Rvb=0.7%). Type of assay: functional. Conditions: time 74 hrs.
Assay [10] concerns SH-SY5Y. Put plainly: Induction of apoptosis in human SH-SY5Y cells assessed as late apoptotic cells at 10 uM preincubated for 2 hrs followed by coincubation with Abeta42 and measured after 72 hrs by Annexin V-FITC/propidium iodide staining based flow cytometry (Rvb=3.5%). Conditions: time 74 hrs. The assay is classed as functional.
The subject of assay [11] is SH-SY5Y. Kind of assay: Induction of apoptosis in human SH-SY5Y cells assessed as live cells at 10 uM preincubated for 2 hrs followed by coincubation with Abeta42 and measured after 72 hrs by Annexin V-FITC/propidium iodide staining based flow cytometry (Rvb=94.8%). The assay is classed as functional. Conditions: time 74 hrs. Background: In flow cytometry, cells or beads pass a laser one at a time.

For assay [12], the system named is SH-SY5Y. Put plainly: Induction of apoptosis in human SH-SY5Y cells assessed as early apoptotic cells at 10 uM preincubated for 2 hrs followed by coincubation with Abeta42 and measured after 72 hrs by Annexin V-FITC/propidium iodide staining based flow cytometry (Rvb=1%). Conditions: time 74 hrs. Type of assay: functional.

`Nc1ncc(-c2ccc(S(=O)(=O)N3CCN(CCCCc4cn(CCOCCOCCOCCOCCNc5cccc6c5C(=O)N(C5CCC(=O)NC5=O)C6=O)nn4)CC3)cc2)nc1C(=O)Nc1cccnc1` (stereo not drawn): the Activity in [1] was determined as 84.4%; in assay [2] it was 90.3%; in [5], 68.5%; in assay [6], 63.7%. For the same molecule, the 50% degradation concentration (DC50) in [3] was 38.2 nM; in [4], 110 nM.
As for `Nc1ncc(-c2ccc(S(=O)(=O)N3CCN(CCCCc4cn(CCOCCOCCOCCOCCOCCOCCNc5cccc6c5C(=O)N(C5CCC(=O)NC5=O)C6=O)nn4)CC3)cc2)nc1C(=O)Nc1cccnc1` (stereo not drawn), the Activity in assay [1] came out at 87%; in assay [2], 91.4%; in assay [5], 71.9%; in assay [6], 56.7%. The DC50 is 40.4 nM in assay [3] and 66.6 nM in assay [4].
Regarding `Nc1ncc(-c2ccc(S(=O)(=O)N3CCN(Cc4cn(CCOCCOCCOCCOCCOCCNc5cccc6c5C(=O)N(C5CCC(=O)NC5=O)C6=O)nn4)CC3)cc2)nc1C(=O)Nc1cccnc1` (stereo not drawn), the Activity in assay [7] was 74.5%; in [1] it was 63.8%; in assay [2] it was 77.2%; in assay [8], 65.9%; in assay [5] it was 47.4%; in assay [6] it was 28.9%.
`Cn1sc(=O)n(Cc2ccccc2)c1=O`: the Activity was found to be 1.1% in the assay on SH-SY5Y [9], 5.3% in the assay with SH-SY5Y [10], 92.4% in the assay on SH-SY5Y [11] and 1.3% in the assay with SH-SY5Y [12].
As for `Nc1ncc(-c2ccc(S(=O)(=O)N3CCN(Cc4cn(CCOCCOCCOCCNc5cccc6c5C(=O)N(C5CCC(=O)NC5=O)C6=O)nn4)CC3)cc2)nc1C(=O)Nc1cccnc1` (stereo not drawn), the Activity in assay [7] is 80.2%; in [1], 46.6%; in assay [2] it was 75.6%; in [8], 86.4%; in assay [5], 45.4%; in assay [6], 29.9%.
